Results on 9 compounds are retold here after patent US20240150396A1 (The Texas A&M University System, priority 2021, published 2024).

Structures are written as SMILES. Where “and” joins values, the source holds several entries; their conditions need not be identical. Equal entries are not always repeated. Where two headings read alike, the source gives them in different places. Residues, ends and D or L forms follow the SMILES beside them. *: point of attachment. AMC = Cc1cc(=O)oc2cc(N*)ccc12; Cbz = O=C(OCc1ccccc1)*

For data set [1], the target named is T1, cruzain (Trypanosoma cruzi, UniProt P25779). In words: biochemical. The settings on record: pH 7.5. A digest of the protocol: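 Fluorogenic assay at 25 °C following AMC release (ex 360/em 460 nm), with typically 0.2 nM cruzain and 10% DMSO, at pH 7.5 or 5.5 buffer with 5 mM DTT.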
Data set [2] can be described thus: Solubility of cruzain inhibitors in 10% DMSO, light scattering. The class given is physicochemical. On the procedure: Synthetic PVHIs such as 5-16 and 22-24 at final concentrations of 1-200 μM were added to 0.25 mL solutions of 10% DMSO (v/v) in clear 96-well Greiner plates, and absorbance at 620 nm was measured using a BioTek M2 Synergy plate reader at t=0 and 120 min to evaluate increased light scattering and precipitated inhibitor.

The target of a further data set is human cathepsin L (Homo sapiens (Human), UniProt P07711). Description: Human cathepsin L inhibition, Z-FR-AMC assay. The class given is biochemical. The settings on record: for Ki: pH 5.5, 25° C. On the procedure: (§1) Recombinant human cathepsins B and L were purchased from Millipore Sigma and used without further treatment. The solid proteins were dissolved into a solution of 50 mM sodium acetate (pH 5.5), 1 mM EDTA, 1 mM CHAPS, 10% (v/v) DMSO, and 5 mM DTT to final concentrations of […] in 20-mL aliquots, and stored at −80° C. until needed. These samples were then diluted into the same buffer to concentrations of −100 nM, and these dilutions were stored at 4° C. and used daily until depletion.
(§2) For assays of cathepsin L and B, inhibitors were evaluated in 0.25-mL reaction mixtures containing a buffer of sodium acetate (pH 5.5), 1 mM CHAPS, 1 mM Na2EDTA, and 5 mM DTT at 25° C. The fluorogenic substrate Cbz-Phe-Arg-7-amino-4-methyl-coumarin (Z-FR-AMC) was dissolved in 100% DMSO, as were all inhibitors, and aliquots of both substrates and inhibitors were added to reaction mixtures to final concentrations of DMSO of 10% (v/v). […] Formation of the fluorescent product AMC was monitored over 30-60-minute time courses for reaction mixtures in 96-well black microplates (Corning Costar®). Rates of peptidolysis of the dipeptide-AMC substrate(s) were measured on either a SpectraMax M5 (Molecular Devices) or a Synergy HTX (Biotek, Wisnooki, VT) microplate reader with λex=360 nm, λem=460 nm in ≥8-sec intervals. Control samples excluded substrate. The measured relative fluorescence units (RFUs) of generated AMC were converted to reaction rates of μM/s by use of a standard curve of known AMC concentrations obtained for both plate readers.

The target of the next data set is human cathepsin B (Homo sapiens (Human), UniProt P07858). In words: Human cathepsin B inhibition, Z-FR-AMC assay. The class given is biochemical. The settings on record: pH 5.5, 25° C. On the procedure: as §1, §2
Another data set addresses SARS-CoV-2 3CL protease (Severe acute respiratory syndrome coronavirus 2 (2019-nCoV) (SARS-CoV-2), UniProt P0DTD1). In words: biochemical. The class given is biochemical. The conditions noted are these: for Ki: read-out: Ki* 3CLpro.
For data set [3], the system named is T. cruzi (Ca-I/72) in C2C12 murine cardiomyoblasts. Description: T. cruzi-infected murine cardiomyoblasts (C2C12). The class given is cell-based, Trypanosoma cruzi. The conditions noted are these: read-out: EC50 T. cruzi-infected cardiomyoblasts. On the procedure:
For the evaluation of the antitrypanocidal activity of cruzain inhibitors, we infected a C2C12 mouse cardiomyoblast cell line (ATCC CRL-1772) with T. cruzi strain Ca-I/72 (a gift from James Dvorak, National Institutes of Health) in […] plates. […] The plates were incubated at 37° C. for 48 h, and the wells were fixed with 2% paraformaldehyde in PBS and stained with 5 μg mL-1 4,6-diamidino-2-phenylindole. After at least 30 min of incubation at room temperature in the dark, the plates were read in an automated microscope, ImageXpress Micro XL (Molecular Devices), and the images were analyzed by custom-built software to quantify and assess viability of the parasites, as well as the host cells independently. The compilation of data was used to calculate the antiparasitic activity (EC50) and host cytotoxicity (CC50).
T. cruzi infection was evaluated in C2C12 murine cardiomyoblast cells. 384-microwell plates containing C2C12 murine cardiomyoblast cells were infected with 10^3 and 10^4 cells of T. cruzi (Ca-I/72), to which was added 3-fold serially-dilutions of inhibitor with maximal concentrations of 10 μM, followed by incubation at 37° C. for 2 days. The wells were fixed with 2% PFA in PBS, and stained by 5 μg/ml of DAPI. After >30 min of incubation in a dark environment, the plates were read on an ImageXpress MicroXL microscope (Molecular Devices). The images were analyzed to quantify parasites as well host cells.

Data set [4] deals with T. b. brucei procyclic forms. In words: Growth of axenic cultures of T. b. brucei procyclic forms (PCFs). The class given is cell-based, Trypanosoma brucei brucei. The conditions noted are these: axenic culture, read-out: EC50 T. b. brucei PCF.
Data set [5] deals with SARS-CoV-2 in Vero E6 cells. Description: Anti-CoV-2 activity in Vero E6 cells. The class given is cell-based.
Data set [6] deals with trypanosomes (T. b. brucei, T. cruzi). In words: Anti-trypanosomal activity, culture not stated. The conditions noted are these: culture (T. b. brucei PCF/BSF or T. cruzi-infected cardiomyoblasts) not stated. The class given is cell-based.
Data set [7] deals with T. cruzi epimastigotes (strain Y). Description: Growth of axenic cultures of T. cruzi epimastigotes.
Description: Selected cruzain inhibitors in axenic cell cultures of Trypanosoma brucei brucei (procyclic trypomastigotes; ATCC PRA-381) and Trypanosoma cruzi (epimastigote forms; strain Y, ATCC 50832GFP) were tested. T. b. brucei is grown in SDM-79 medium, and T. cruzi is grown in ATCC medium (1029 LIT medium). Both media included fetal calf serum (10%) and penicillin/streptomycin (50 U/mL). […] T. brucei and T. cruzi (5 mL in flask cultures) at 26° C. were seeded at ˜3×10^6 cells, and diluted daily maintaining a mid-log growth phase for up to 100 hrs. Cell counts were scored using a Z2 Coulter Counter. After each cell dilution, fresh compound or an equal volume of DMSO (control samples), was supplemented into the cultures. […] Cruzain inhibitors where the highest concentration reflects the upper limit of solubilities of the inhibitors in 1% (v/v) DMSO solutions were evaluated. These inhibitors are likely to bind to proteins in fetal calf serum, and for these reasons, fresh inhibitors were added each time cells were re-fed.
Selected cruzain inhibitors were evaluated in axenic cell cultures of T. b. brucei and T. cruzi. Procyclic trypomastigotes of T. b. brucei (ATCC PRA-381) were grown in the SDM-79 medium at 26° C., and bloodstream forms (ATCC PRA-383) were grown at 37° C. in the HMI-9 medium at 5% C02. T. cruzi (epimastigote forms, strain Y, ATCC 50832GFP) was grown in the ATCC medium (1029 LIT medium). Both forms of T. b. brucei and T. cruzi were grown in media containing 10% fetal bovine serum (FBS) and penicillin/streptomycin (50 U mL^−1). […] Control samples contained equal amounts of DMSO. T. b. brucei and T. cruzi (5 mL in flask cultures) were seeded at ˜3×10^6 cells and diluted daily, maintaining a mid-log growth phase for up to 120 h. […] After each cell dilution, fresh compound or an equal volume of DMSO (control samples) was supplemented into the cultures, while maintaining a constant concentration of each inhibitor. Cell counts were scored using a Z2 Coulter Counter.
For data set [8], the target named is T1, cruzain. Description: Kinetic parameters of peptide substrates for cruzain. The conditions noted are these: relative to Cbz-Phe-Arg-AMC. The class given is biochemical.
For data set [9], the target named is T1, cruzain. The conditions noted are these: 2% DMSO, from Ref. 40; cited from earlier work.
The test system of data set [10] is T. b. brucei bloodstream forms. Description: Growth of axenic cultures of T. b. brucei bloodstream forms (BSFs).
A further data set concerns human dermal fibroblasts. Description: Human cell toxicity, resazurin viability. The class given is cell-based. The settings on record: human dermal fibroblasts; read-out: Human Cell Cytotoxicity CC50. On the procedure:
Primary human dermal fibroblast (HDF) cells were used to evaluate human cell toxicity of cruzain inhibitors. HDF cells were plated in a 384-well plate at 2400 cells per well (62,000 cells mL^−1). Inhibitors in 100% DMSO were added in duplicate to final concentrations of 0.001-0.1 mM and 1% DMSO (v/v) with 1% DMSO as a control sample, and cells were cultured at 37° C. for 48 h, followed by the addition of resazurin. Cell viability was then assessed by reading of fluorescence (excitation/emission: 544 nm/590 nm) after an additional 24 h of incubation.

Data set [11] can be described thus: Host cell cytotoxicity in the T. cruzi infection model. The class given is cell-based, mouse. The conditions noted are these: mouse; host cardiomyoblasts; read-out: C2C12 Cytotoxicity CC50. On the procedure: The plates were incubated at 37° C. for 48 h, and the wells were fixed with 2% paraformaldehyde in PBS and stained with 5 μg mL-1 4,6-diamidino-2-phenylindole. After at least 30 min of incubation at room temperature in the dark, the plates were read in an automated microscope, ImageXpress Micro XL (Molecular Devices), and the images were analyzed by custom-built software to quantify and assess viability of the parasites, as well as the host cells independently. The compilation of data was used to calculate the antiparasitic activity (EC50) and host cytotoxicity (CC50).
T. cruzi infection was evaluated in C2C12 murine cardiomyoblast cells. […] The wells were fixed with 2% PFA in PBS, and stained by 5 μg/ml of DAPI. After >30 min of incubation in a dark environment, the plates were read on an ImageXpress MicroXL microscope (Molecular Devices). The images were analyzed to quantify parasites as well host cells.

[12] abbreviates: apparent tight-binding inhibition constant, 25° C., read-out: Ki*.
Setting [13] is: obtained >10 minutes following initiation of reaction by addition of enzyme, read-out: Ki* Cruzain.
Where [14] appears, read: read-out: EC50 T. b. brucei BSF, axenic culture.

Chain of human cathepsin L (P07711 114-333): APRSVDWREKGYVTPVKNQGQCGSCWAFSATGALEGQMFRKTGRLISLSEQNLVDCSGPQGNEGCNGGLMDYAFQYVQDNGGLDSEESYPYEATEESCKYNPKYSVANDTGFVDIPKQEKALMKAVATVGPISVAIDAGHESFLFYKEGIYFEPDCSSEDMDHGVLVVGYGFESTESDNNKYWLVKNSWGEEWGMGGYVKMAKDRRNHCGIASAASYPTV
T1 sequence (P25779 123-467 limits assumed): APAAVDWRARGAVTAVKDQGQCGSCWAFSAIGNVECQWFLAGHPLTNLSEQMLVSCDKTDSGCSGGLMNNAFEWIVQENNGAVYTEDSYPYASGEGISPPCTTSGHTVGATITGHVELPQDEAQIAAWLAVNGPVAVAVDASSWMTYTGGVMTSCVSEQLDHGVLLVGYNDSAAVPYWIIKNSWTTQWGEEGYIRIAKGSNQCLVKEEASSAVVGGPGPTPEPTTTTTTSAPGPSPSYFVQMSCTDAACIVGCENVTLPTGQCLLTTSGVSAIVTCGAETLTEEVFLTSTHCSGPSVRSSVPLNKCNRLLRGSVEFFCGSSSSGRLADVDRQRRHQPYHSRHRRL

Take `O=C(N[C@@H](Cc1ccccc1)C(=O)N[C@H](/C=C/c1ccccc1)Cc1ccccc1)OCc1ccccc1` [Compound 5, Benzyl ((S)-1-(((S,E)-1,4-Diphenylbut-3-en-2-yl)amino)-1-oxo-3-phenylpropan-2-yl)carbamate]: the Ki on cruzain [1] (apparent initial inhibition constant, 25° C., read-out: Ki) amounted to 1.8 ± 0.1 µM; at cruzain [1] (setting [12]) it was 0.87 µM. Moreover, the aqueous solubility entry in data set [2] was “poor aqueous solubility”.
As to `COC(=O)c1ccc2c(c1)CC(NC(=O)C(Cc1ccccc1)NC(=O)OCc1ccccc1)C(O)O2` (centres unmarked) [Compound 35], the Ki is 0.018 ± 0.0005 µM at cruzain [1] (setting [13]), 0.0108 ± 0.0008 µM at human cathepsin L (read-out: Ki* hCatL), 0.67 ± 0.03 µM at human cathepsin B (read-out: Ki* hCatB) and greater than 10 µM at SARS-CoV-2 3CL protease (pH 7.5). At human cathepsin L, the “inhibits cathepsin L more potently than cruzain” value was found to be 6 fold. For the same compound, the half-maximal effective concentration (EC50) in data set [3] (C2C12 murine cardiomyoblasts) was 3.5 ± 0.3 µM; in [4], 6.7 µM; in [5], 2.5 µM; in [6], 3.5 to 6.7 µM; in [7] (read-out: T. cruzi axenic culture EC50, epimastigotes), 2 to 20 µM.
On to `Cc1cc(=O)oc2cc(NC(=O)C(C)NC(=O)C(Cc3ccccc3)NC(=O)OCc3ccccc3)ccc12` (stereo not drawn) [Compound S12, Cbz-Phe-Ala-AMC], for which the kcat rel on cruzain [8] is given as 0.09. Also, on cruzain [9], the Km is 38 ± 2 µM, the kcat was 0.89 ± 0.06 s⁻¹ and the specificity constant (kcat/Km) was 23000 ± 3000 M⁻¹ s⁻¹.
As to `COc1ccc2c(c1)CC(NC(=O)C(Cc1ccccc1)NC(=O)OCc1ccccc1)C(O)O2` (centres unmarked) [Compound 31], the Ki on cruzain [1] (setting [13]) was 0.35 ± 0.03 µM; at human cathepsin L (read-out: Ki* hCatL), 0.038 ± 0.002 µM; at human cathepsin B (read-out: Ki* hCatB), 5.5 ± 0.4 µM; on SARS-CoV-2 3CL protease, greater than 10 µM. Besides, at SARS-CoV-2 3CL protease, the “Ki* 3CLpro” value was “not an inhibitor of 3CL protease”. In addition, the EC50 is 11 µM in [4]; 2.5 µM and 2.5 to 7.5 µM in [5]; 3 to 11 µM in [6]; 3 µM and 2.6 µM in data set [10] (setting [14]).
Consider `O=C(N[C@@H](Cc1ccccc1)C(=O)N[C@H](/C=C/c1ccccn1)CCc1ccccc1)OCc1ccccc1` [Compound 13, Benzyl ((S)-1-Oxo-3-phenyl-1-(((S,E)-5-phenyl-1-(pyridin-2-yl)-pent-1-en-3-yl)amino)propan-2-yl)carbamate], for which the Ki on human cathepsin L (10% DMSO, read-out: Ki* Human Cathepsin L) is 1.9 ± 0.2 µM; on human cathepsin B (10% DMSO, read-out: Ki* Human Cathepsin B) it was 6.5 ± 0.9 µM. The EC50 in [3] (C2C12 murine cardiomyoblasts) was 5.9 ± 0.3 µM; in [3] (Trypanosoma cruzi, C2C12, C2C12 murine cardiomyoblasts), 5 to 10 µM; in data set [4] (Trypanosoma brucei), 5.5 µM; in data set [4] it was greater than 10 µM; in data set [7] (Trypanosoma cruzi, read-out: T. cruzi axenic culture EC50, epimastigotes), greater than 20 µM; in data set [10] (Trypanosoma brucei, read-out: EC50 T. b. brucei BSF, axenic culture) it was 4 ± 2 µM. Also, the CC50 with human dermal fibroblasts is greater than 100 µM. In data set [11], the CC50 at 48 h was greater than 10 µM. Moreover, in data set [7] (epimastigotes), the “T. cruzi axenic culture EC50” value is reported as “poorly effective”.
Consider `O=C(NC(Cc1ccccc1)C(=O)NC1Cc2cc(Cl)ccc2OC1O)OCc1ccccc1` (centres unmarked) [Compound 33], for which the Ki on cruzain [1] (setting [13]) is 0.074 ± 0.01 µM; at human cathepsin L (read-out: Ki* hCatL), 0.027 ± 0.0007 µM; at human cathepsin B (read-out: Ki* hCatB), 1.4 ± 0.1 µM; at SARS-CoV-2 3CL protease (pH 7.5), greater than 10 µM. The concentration for a half-maximal effect (EC50) in data set [4] was 10 µM; in data set [6], 6 to 10 µM; in data set [10] (setting [14]), 6 µM and 5.8 µM.
For the compound `O=C(NC(Cc1ccccc1)C(=O)NC1Cc2cc(F)ccc2OC1O)OCc1ccccc1` (centres unmarked) [Compound 34], the Ki on cruzain [1] (setting [13]) is 0.048 ± 0.002 µM; on human cathepsin L (read-out: Ki* hCatL) it was 0.023 ± 0.001 µM; on human cathepsin B (read-out: Ki* hCatB) it was 2.3 ± 0.2 µM; on SARS-CoV-2 3CL protease (pH 7.5), greater than 10 µM. The concentration for a half-maximal effect (EC50) in data set [3] (C2C12 murine cardiomyoblasts) is 3.5 µM and 3 to 5.7 µM; in [4], 11.1 µM; in data set [5] it was 4 µM and 2.5 to 7.5 µM; in data set [6] it was 3 to 11 µM; in data set [10] (setting [14]) it was 2.7 µM.
As for `O=C(N[C@@H](Cc1ccccc1)C(=O)N[C@H](/C=C/c1ccc([N+](=O)[O-])cc1)Cc1ccccc1)OCc1ccccc1` [Compound 6, Benzyl ((S)-1-(((S,E)-4-(4-Nitrophenyl)-1-phenylbut-3-en-2-yl)-amino)-1-oxo-3-phenylpropan-2-yl)carbamate], on cruzain [1] (setting [12]), the Ki is 0.37 ± 0.02 µM. Further, the aqueous solubility result in [2] was “poor aqueous solubility”.
For the compound `Cc1cc(=O)oc2cc(NC(=O)[C@H](CCCN=C(N)N)NC(=O)[C@H](CCCN=C(N)N)NC(=O)OCc3ccccc3)ccc12` [Compound S6, Cbz-Arg-Arg-AMC] (Cbz-Arg-Arg-{AMC}), on cruzain [8], the kcat rel is recorded as 0.75. On cruzain [9], the Km is 3.7 ± 0.4 µM, the kcat was 7.2 ± 0.1 s⁻¹ and the kcat/Km is 1.9e+06 ± 200000 M⁻¹ s⁻¹.

Broadly, the EC50 is the concentration giving half of the maximal effect. What is called Km is the substrate concentration at which the rate is half of its maximum. The kcat is the number of substrate molecules converted per active site and unit of time at saturation. The term kcat/Km denotes the turnover number divided by the Michaelis constant. By CC50 is commonly meant the concentration at which the toxic effect on the cells reaches its halfway point.
